Experimental findings from patent publication US11208400B2, “Substituted 6-(1H-pyrazol-1-yl)pyrimidin-4-amine derivatives and uses thereof” (Bayer Aktiengesellschaft, priority 2016, dated 2021) are described below.

This assay deals with T1, human Npt2a (Homo sapiens, UniProt Q06495).
T1 construct: expressed in transfected cells
T1 sequence (Q06495 1-639): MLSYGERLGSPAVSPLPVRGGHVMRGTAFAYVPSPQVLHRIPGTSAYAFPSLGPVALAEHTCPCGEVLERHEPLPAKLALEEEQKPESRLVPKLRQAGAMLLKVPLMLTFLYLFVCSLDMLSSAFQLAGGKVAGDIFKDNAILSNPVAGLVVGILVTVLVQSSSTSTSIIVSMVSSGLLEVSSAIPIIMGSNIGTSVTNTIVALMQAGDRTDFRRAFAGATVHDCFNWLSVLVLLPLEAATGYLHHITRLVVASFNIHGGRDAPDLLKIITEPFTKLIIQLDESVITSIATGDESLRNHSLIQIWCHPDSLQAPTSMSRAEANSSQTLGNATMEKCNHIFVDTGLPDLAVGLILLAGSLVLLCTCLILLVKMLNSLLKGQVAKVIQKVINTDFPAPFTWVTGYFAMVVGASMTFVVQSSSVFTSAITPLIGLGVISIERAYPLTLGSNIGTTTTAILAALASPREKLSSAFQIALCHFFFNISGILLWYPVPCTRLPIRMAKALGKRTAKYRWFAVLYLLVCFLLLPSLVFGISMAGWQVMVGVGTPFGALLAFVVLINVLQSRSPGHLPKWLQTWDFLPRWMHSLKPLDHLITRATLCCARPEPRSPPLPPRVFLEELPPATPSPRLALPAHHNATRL
The assay can be described thus: Npt2a activity cell based assay, membrane potential dye, CHO T-REx hNpt2a cells. To be noted: doxycycline-induced, depolarization by sodium phosphate influx, average or median values if tested more than once. How it is done:
For measuring Npt2a activity in a cell based assay, a stable CHO cell line with inducible Npt2a expression was generated. Therefore, CHO T-Rex cells (life technologies cat. R718-07) were stably transfected with doxycycline-inducible human NPT2a (pcDNA5TO-hNpt2a). The obtained CHO T-REx hNpt2a cells were routinely cultured in Dulbecco's MEM/F12 (4.5 g/l Glucose, Gibco cat. 21331-020; 500 mL) supplemented with 10 ml Glutamax 100×, Sodium pyruvate (7 mL of 100 mM solution), HEPES (10 mL of 1 M solution), Sodium bicarbonate (10 mL of 7.5% solution), 10% Fetal Bovine Serum Tetracycline free (Clontech cat. 631106, 500 ml), Penicillin-Streptomycin (5 mL of 100× Solution), Blasticidin 10 μg/mL and 400 μg/mL Hygromycin.
Activity of Npt2a was detected by following depolarization of cellular membrane potential by influx of sodium phosphate using fluorescent membrane potential dye kit BLUE (Molecular devices cat. R8034). For Npt2a activity measurements, CHO T-Rex hNpt2a cells were seeded into 1536 well microtiter plates (GREINER Bio-One cat. 782092) with 750 cells/well in 7 μL/w of complete medium (2% Tetracycline-free FBS, 2% Poly-D-Lysine) without selective agents+Doxycycline 0.5 μg/mL to induce Npt2a gene expression, and grown for 24 h at 37° C., 5% carbon dioxide.
On the day of experiment a 1×MPdye Loading Solution was freshly prepared by re-suspending 15 mg of Blue MPdye powder in 10 mL of NHE buffer sodium-free (140 mM N-Methyl-D-glucamine, 5.4 mM KCl, 1 mM CaCl2, 11 mM D(±)-Glucose water free, 1.2 mM MgCl2, 10 mM HEPES; pH 7.4 (adjusted with hydrochloric acid); sterile filtered). 5 μl medium was removed from plates by robotic manipulation, then 5 μL/well of sodium-free NHE buffer was added. After incubation for 2 min, this washing step was repeated once. Then, 5 μL/w of buffer was removed from plates and cells were incubated for 5 min at room temperature with 5 μL/w of MPdye Loading Solution (1× in Sodium-free NHE Buffer). Test compounds were added to the cells at final test concentrations between 50 μM and 1 nM (0.6 μL/well, final DMSO 0.6%, prepared in MPDye Loading Solution) and incubated for 5 min at room temperature.
Plates were analyzed with an in house CCD camera device using a λexc 510-545 nm/λem 565-625 nm filter. Fluorescence was detected for 15 sec (background measurement M1). Activity of Npt2a was triggered by addition of 2 μL/well of 30 mM Na+ and 1 mM phosphate (prepared in a mixture of NHE Buffer Na+ free and NHE Buffer 140 mM Na+). Fluorescence was followed for 2-3 min (depolarization measurement M2). Data was normalized to cell number and dye loading efficiency by calculating M2/M1. This quotient was plotted against test compound concentration. Graph Pad Prism or equivalent in house software was used to create sigmoidal dose-response curves (variable slope) and determine IC50 values.
The term IC50 denotes the midpoint of a concentration-inhibition curve. Lower therefore signals higher potency. `Cc1nn(-c2cc(Nc3nn(C)c(-c4ccc(C#N)cc4)c3C)ncn2)c(C(F)F)c1Cl` [Example 235, 4-[3-({6-[4-chloro-5-(difluoromethyl)-3-methyl-1H-pyrazol-1-yl]pyrimidin-4-yl}amino)-1,4-dimethyl-1H-pyrazol-5-yl]benzonitrile] yielded a half-maximal inhibitory concentration (IC50) of 3 nM.

In turn, `CNc1ccc(-c2nn(CC3CC3)c(Nc3cc(-n4nc(C)cc4C(F)F)ncn3)c2C)cc1` [Example 487, N-{1-(cyclopropylmethyl)-4-methyl-3-[4-(methylamino)phenyl]-1H-pyrazol-5-yl}-6-[5-(difluoromethyl)-3-methyl-1H-pyrazol-1-yl]pyrimidin-4-amine] registered a 50% inhibitory concentration (IC50) of 150 nM.

Compound `CCOC(=O)c1c(C)nn(-c2cc(Nc3c(C)c(-c4ccc(OC(F)(F)F)cc4)nn3C)ncn2)c1C` [Example 361, ethyl 1-[6-({1,4-dimethyl-3-[4-(trifluoromethoxy)phenyl]-1H-pyrazol-5-yl}amino)pyrimidin-4-yl]-3,5-dimethyl-1H-pyrazole-4-carboxylate] registered an IC50 of 31 nM.

Take `COC(C)c1c(C)nn(-c2cc(Nc3c(C)c(-c4ccc(F)cc4)nn3CC3CC3)ncn2)c1C` (racemic) [Example 326, (±)-N-[1-(cyclopropylmethyl)-3-(4-fluorophenyl)-4-methyl-1H-pyrazol-5-yl]-6-{4-[1-methoxyethyl]-3,5-dimethyl-1H-pyrazol-1-yl}pyrimidin-4-amine (Racemic)]: the IC50 is 4 nM. Against the preceding compound, the IC50 is about 7.8-fold lower.

Take `Cc1nn(-c2cc(Nc3c(C)nn(-c4ccc(F)cc4)c3C)ncn2)c(C)c1CC(C)(C)O` [Example 393, 1-[1-(6-{[1-(4-fluorophenyl)-3,5-dimethyl-1H-pyrazol-4-yl]amino}pyrimidin-4-yl)-3,5-dimethyl-1H-pyrazol-4-yl]-2-methylpropan-2-ol]: the IC50 is 180 nM.

As for `CCc1c(-c2ccc(F)cc2)nn(C)c1Nc1cc(-n2nc(C)c(Br)c2C)ncn1` [Example 265, 6-(4-bromo-3,5-dimethyl-1H-pyrazol-1-yl)-N-[4-ethyl-3-(4-fluorophenyl)-1-methyl-1H-pyrazol-5-yl]pyrimidin-4-amine], the IC50 turned out to be 180 nM.

Take `CCc1c(-c2ccc(C#N)cc2)nn(CC2CC2)c1Nc1cc(-n2nc(C)c3ccncc32)ncn1` [Example 203, 4-[1-(cyclopropylmethyl)-4-ethyl-5-{[6-(3-methyl-1H-pyrazolo[3,4-c]pyridin-1-yl)pyrimidin-4-yl]amino}-1H-pyrazol-3-yl]benzonitrile]: the half-maximal inhibitory concentration (IC50) is 1400 nM.

Take `Cc1cc(C(C)(C)O)n(-c2cc(Nc3c(C)c(-c4ccc(C#N)cc4)nn3CC3CC3)ncn2)n1` [Example 263, 4-[1-(cyclopropylmethyl)-5-({6-[5-(2-hydroxypropan-2-yl)-3-methyl-1H-pyrazol-1-yl]pyrimidin-4-yl}amino)-4-methyl-1H-pyrazol-3-yl]benzonitrile]: the 50% inhibitory concentration (IC50) turned out to be 111 nM. This IC50 is about 13-fold lower than that of the compound before.

As for `Cc1cc(C)n(-c2cc(Nc3c(C)c(-c4ccc(F)cc4)nn3CC(C)(O)C3CC3)ncn2)n1` (racemic) [Example 325, (±)-2-cyclopropyl-1-[5-{[6-(3,5-dimethyl-1H-pyrazol-1-yl)pyrimidin-4-yl]amino}-3-(4-fluorophenyl)-4-methyl-1H-pyrazol-1-yl]propan-2-ol (Racemate)], the 50% inhibitory concentration (IC50) was 1100 nM. Compared with the last compound, the IC50 is about 9.9-fold higher.

With `CCc1c(Nc2cc(-n3cc4c(n3)CCC4)ncn2)n[nH]c1-c1ccc(F)cc1` [Example 20, 6-(5,6-dihydrocyclopenta[c]pyrazol-2(4H)-yl)-N-[4-ethyl-5-(4-fluorophenyl)-1H-pyrazol-3-yl]pyrimidin-4-amine], the concentration for half-maximal inhibition (IC50) was found to be 120 nM.

For `CCOC(=O)Cc1c(C)nn(-c2cc(Nc3nn(C)c(-c4ccc(C#N)cc4)c3OC)ncn2)c1C` [Example 492, ethyl [1-(6-{[5-(4-cyanophenyl)-4-methoxy-1-methyl-1H-pyrazol-3-yl]amino}pyrimidin-4-yl)-3,5-dimethyl-1H-pyrazol-4-yl]acetate], the midpoint of inhibition, the IC50, lay at 13 nM.

Consider `Cc1nn(-c2cc(Nc3c(C)c(-c4ccc(OC(F)(F)F)cc4)nn3CC3CC3)ncn2)c(C)c1C(C)(C)O` [Example 289, 2-{1-[6-({1-(cyclopropylmethyl)-4-methyl-3-[4-(trifluoromethoxy)phenyl]-1H-pyrazol-5-yl}amino)pyrimidin-4-yl]-3,5-dimethyl-1H-pyrazol-4-yl}propan-2-ol], for which the midpoint of inhibition, the IC50, lay at 23 nM.

Regarding `Cc1nn(-c2cc(Nc3c(C)c(-c4ccc(C(F)F)nc4)nn3C)ncn2)c(C)c1C(F)(F)F` [Example 473, N-{3-[6-(difluoromethyl)pyridin-3-yl]-1,4-dimethyl-1H-pyrazol-5-yl}-6-[3,5-dimethyl-4-(trifluoromethyl)-1H-pyrazol-1-yl]pyrimidin-4-amine], the IC50 was found to be 160 nM.

As for `Cc1nn(-c2cc(Nc3nn(C)c(-c4ccc(F)cc4)c3OC(F)F)ncn2)c(C)c1C(F)(F)F` [Example 469, N-[4-(difluoromethoxy)-5-(4-fluorophenyl)-1-methyl-1H-pyrazol-3-yl]-6-[3,5-dimethyl-4-(trifluoromethyl)-1H-pyrazol-1-yl]pyrimidin-4-amine], it took 5 nM to reach half-maximal inhibition (IC50). This IC50 is about 32-fold lower than that of the compound before.

In turn, `Cc1nn(-c2cc(Nc3c(Cl)c(-c4ccc(F)cc4)nn3C)ncn2)c2ccccc12` [Example 100, N-[4-chloro-3-(4-fluorophenyl)-1-methyl-1H-pyrazol-5-yl]-6-(3-methyl-1H-indazol-1-yl)pyrimidin-4-amine] showed an IC50 of 360 nM.

Compound `Cc1nn(-c2cc(Nc3nn(C)c(-c4ccc(F)cc4)c3C)ncn2)c(C)c1C(O)CC(C)C` (centres unmarked) [Example 456, 1-[1-(6-{[5-(4-fluorophenyl)-1,4-dimethyl-1H-pyrazol-3-yl]amino}pyrimidin-4-yl)-3,5-dimethyl-1H-pyrazol-4-yl]-3-methylbutan-1-ol] yielded an IC50 of 41 nM. Against the preceding compound, the IC50 is about 8.8-fold lower.

As to `COCCn1nc(-c2ccc(C(F)F)cc2)c(C)c1Nc1cc(-n2nc(C)c(OC)c2C)ncn1` [Example 539, N-{3-[4-(difluoromethyl)phenyl]-1-(2-methoxyethyl)-4-methyl-1H-pyrazol-5-yl}-6-(4-methoxy-3,5-dimethyl-1H-pyrazol-1-yl)pyrimidin-4-amine], the concentration for half-maximal inhibition (IC50) was determined as 20 nM. Compared with the last compound, the IC50 is about 2-fold lower.

Compound `CCc1nn(C)c(Nc2cc(-n3nc(C)cc3C)ncn2)c1-c1ccc(F)cc1` [Example 35, 6-(3,5-dimethyl-1H-pyrazol-1-yl)-N-[3-ethyl-4-(4-fluorophenyl)-1-methyl-1H-pyrazol-5-yl]pyrimidin-4-amine] showed an IC50 of 1400 nM.

Compound `Cc1nn(-c2cc(Nc3c(C)c(-c4ccc(F)cc4)nn3CC3CC3)ncn2)c(C)c1CC(C)(C)O` [Example 302, 1-[1-(6-{[1-(cyclopropylmethyl)-3-(4-fluorophenyl)-4-methyl-1H-pyrazol-5-yl]amino}pyrimidin-4-yl)-3,5-dimethyl-1H-pyrazol-4-yl]-2-methylpropan-2-ol] yielded an IC50 of 9 nM.

`CCc1c(Nc2cc(-n3nc(C)c(Br)c3C)ncn2)nn(C)c1-c1ccc(F)cc1` [Example 191, 6-(4-bromo-3,5-dimethyl-1H-pyrazol-1-yl)-N-[4-ethyl-5-(4-fluorophenyl)-1-methyl-1H-pyrazol-3-yl]pyrimidin-4-amine] returned an IC50 of 3 nM.
